Inhibition data for seven compounds are collected here from patent US10414769B2, “5,8-dimethyl-9-phenyl-5,8-dihydro-6H-pyrazolo[3,4-h]quinazolin-2-yl)-(1H-pyrazol-3-yl)-amines as IGF-1R/IR inhibitors” (Boehringer Ingelheim International GmbH, priority 2015, dated 2019).

Common to all, as to assay type: biochemical
One experiment addresses T1, LCK (Homo sapiens, UniProt P06239).
T1 construct: purchased Life Technologies P 3043
Nature of the experiment: Z'-LYTE kinase selectivity assay LCK. From the text:
(§1) In order to compare the kinase selectivity of compounds (I) according to the invention with known prior art compounds the commercially provided SelectScreen® Kinase Profiling Service (Z′-LYTE®) was used (Life Technologies GmbH, Darmstadt, Germany) to investigate the ability of the compounds to inhibit a number of different, representatively selected human kinases. Further details regarding this service are available on the Life Technologies website at
(§2) The Z′-LYTE® biochemical assay employs a fluorescence-based, coupled-enzyme format and is based on the differential sensitivity of phosphorylated and non-phosphorylated peptides to proteolytic cleavage. The peptide substrate is labeled with two fluorophores—one at each end—that make up a FRET pair.
(§3) In the primary reaction, the kinase transfers the gamma-phosphate of ATP to a single tyrosine, serine or threonine residue in a synthetic FRET-peptide. In the secondary reaction, a site-specific protease recognizes and cleaves non-phosphorylated FRET-peptides. Phosphorylation of FRET-peptides suppresses cleavage by the Development Reagent. Cleavage disrupts FRET between the donor (i.e., coumarin) and acceptor (i.e., fluorescein) fluorophores on the FRET-peptide, whereas uncleaved, phosphorylated FRET-peptides maintain FRET. A ratiometric method, which calculates the ratio (the Emission Ratio) of donor emission to acceptor emission after excitation of the donor fluorophore at 400 nm, is used to quantitate reaction progress, as shown in the equation below.
(§4) The Test Compounds are screened at 1 μM.
The 2×LCK (# P 3043)/Tyr 02 (Z′-LYTE® Kinase Assay Kit—Tyrosine 2 Peptide, # PV 3191) mixture is prepared in 50 mM HEPES pH 7.5, 0.01% BRIJ-35, 10 mM MgCl2, 1 mM EGTA. The final 10 μL Kinase Reaction consists of 2.46-50 ng LCK and 2 μM Tyr 02 in 50 mM HEPES pH 7.5, 0.01% BRIJ-35, 10 mM MgCl2, 1 mM EGTA. After the 1 hour Kinase Reaction incubation, 5 μL of a 1:128 dilution of Development Reagent A is added.

A further experiment deals with T2, NEK2 (Homo sapiens, UniProt P51955).
T2 construct: purchased Life Technologies PV 3360
T2 sequence (P51955 1-445): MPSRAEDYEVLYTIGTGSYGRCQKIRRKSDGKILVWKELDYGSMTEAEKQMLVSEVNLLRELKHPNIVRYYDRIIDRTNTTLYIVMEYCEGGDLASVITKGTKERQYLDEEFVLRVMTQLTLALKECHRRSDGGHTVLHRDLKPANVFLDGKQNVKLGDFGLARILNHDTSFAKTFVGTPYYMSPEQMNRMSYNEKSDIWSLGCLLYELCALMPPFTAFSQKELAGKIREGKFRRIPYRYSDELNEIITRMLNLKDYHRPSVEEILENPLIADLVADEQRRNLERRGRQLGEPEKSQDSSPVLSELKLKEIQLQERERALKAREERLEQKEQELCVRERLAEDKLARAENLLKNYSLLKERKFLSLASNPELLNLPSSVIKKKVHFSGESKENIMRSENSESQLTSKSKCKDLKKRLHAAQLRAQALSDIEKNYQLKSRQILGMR
Nature of the experiment: Z'-LYTE kinase selectivity assay NEK2.
Source text: as §1, §2, §3, §4
The 2×NEK2 (# PV 3360)/Ser/Thr 07 (Z′-LYTE® Kinase Assay Kit—Ser/Thr 7 Peptide, # PV 3180) mixture is prepared in 50 mM HEPES pH 7.5, 0.01% BRIJ-35, 10 mM MgCl2, 1 mM EGTA. The final 10 μL Kinase Reaction consists of 0.5-5.4 ng NEK2 and 2 μM Ser/Thr 07 in 50 mM HEPES pH 7.5, 0.01% BRIJ-35, 10 mM MgCl2, 1 mM EGTA. After the 1 hour Kinase Reaction incubation, 5 μL of a 1:65000 dilution of Development Reagent A is added.

The target of a further experiment is T3, ABL1 (Homo sapiens, UniProt P00519).
T3 construct: purchased Life Technologies P3049
Description: Z'-LYTE kinase selectivity assay ABL1.
Source text: as §1, §2, §3, §4
The 2×ABL1 (# P3049)/Tyr 02 (Z′-LYTE® Kinase Assay Kit—Tyrosine 2 Peptide, # PV 3191) mixture is prepared in 50 mM HEPES pH 7.5, 0.01% BRIJ-35, 10 mM MgCl2, 1 mM EGTA. The final 10 μL Kinase Reaction consists of 0.29-2.52 ng ABL1 and 2 μM Tyr 02 in 50 mM HEPES pH 7.5, 0.01% BRIJ-35, 10 mM MgCl2, 1 mM EGTA. After the 1 hour Kinase Reaction incubation, 5 μL of a 1:128 dilution of Development Reagent A is to added.

The target in a further experiment is T4, MYLK2 (skMLCK) (Homo sapiens, UniProt Q9H1R3).
T4 construct: purchased Life Technologies PV 3757
Description: Z'-LYTE kinase selectivity assay MYLK2.
Source text: as §1, §2, §3, §4
The 2×MYLK2 (skMLCK) (# PV 3757)/Ser/Thr 13 (Z′-LYTE® Kinase Assay Kit—Ser/Thr 13 Peptide, # PV 3793) mixture is prepared in 50 mM HEPES pH 7.5, 0.01% BRIJ-35, 10 mM MgCl2, 1 mM EGTA, 4 mM CaCl2, 800 U/mL Calmodulin, 0.02% NaN3. The final 10 μL Kinase Reaction consists of 6.71-48.9 ng MYLK2 (skMLCK) and 2 μM Ser/Thr 13 in 50 mM HEPES pH 7.5, 0.01% BRIJ-35, 10 mM MgCl2, 1 mM EGTA, 2 mM CaCl2, 400 U/mL Calmodulin, 0.01% NaN3. After the 1 hour Kinase Reaction incubation, 5 μL of a 1:1024 dilution of Development Reagent A is added.

The next experiment deals with T5, SRPK2 (Homo sapiens, UniProt P78362).
T5 construct: purchased Life Technologies PV 3829
Nature of the experiment: Z'-LYTE kinase selectivity assay SRPK2.
Source text: as §1, §2, §3, §4
The 2×SRPK2 (# PV 3829)/Ser/Thr 07 (Z′-LYTE® Kinase Assay Kit—Ser/Thr 7 Peptide, # PV 3180) mixture is prepared in 50 mM HEPES pH 7.5, 0.01% BRIJ-35, 10 mM MgCl2, 1 mM EGTA. The final 10 μL Kinase Reaction consists of 3.76-52 ng SRPK2 and 2 μM Ser/Thr 07 in 50 mM HEPES pH 7.5, 0.01% BRIJ-35, 10 mM MgCl2, 1 mM EGTA. After the 1 hour Kinase Reaction incubation, 5 μL of a 1:65000 dilution of Development Reagent A is added.

What is called inhibition is the relative decrease from the control value, in per cent. Read a high inhibition as a strong effect.

T1 sequence (P06239 whole entry): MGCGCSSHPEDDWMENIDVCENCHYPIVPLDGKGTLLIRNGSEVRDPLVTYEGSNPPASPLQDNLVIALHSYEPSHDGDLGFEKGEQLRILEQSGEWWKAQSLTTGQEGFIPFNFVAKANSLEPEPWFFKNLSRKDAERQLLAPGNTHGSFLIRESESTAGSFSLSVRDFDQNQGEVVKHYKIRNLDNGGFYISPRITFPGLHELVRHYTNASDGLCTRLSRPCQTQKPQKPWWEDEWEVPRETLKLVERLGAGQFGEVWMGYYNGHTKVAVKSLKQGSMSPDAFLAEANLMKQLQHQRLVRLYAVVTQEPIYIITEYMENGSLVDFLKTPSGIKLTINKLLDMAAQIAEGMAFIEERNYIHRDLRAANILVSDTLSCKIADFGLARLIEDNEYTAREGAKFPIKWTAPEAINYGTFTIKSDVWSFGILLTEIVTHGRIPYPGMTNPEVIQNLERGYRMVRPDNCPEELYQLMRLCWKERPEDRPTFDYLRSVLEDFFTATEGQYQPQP
T5 sequence (P78362 whole entry): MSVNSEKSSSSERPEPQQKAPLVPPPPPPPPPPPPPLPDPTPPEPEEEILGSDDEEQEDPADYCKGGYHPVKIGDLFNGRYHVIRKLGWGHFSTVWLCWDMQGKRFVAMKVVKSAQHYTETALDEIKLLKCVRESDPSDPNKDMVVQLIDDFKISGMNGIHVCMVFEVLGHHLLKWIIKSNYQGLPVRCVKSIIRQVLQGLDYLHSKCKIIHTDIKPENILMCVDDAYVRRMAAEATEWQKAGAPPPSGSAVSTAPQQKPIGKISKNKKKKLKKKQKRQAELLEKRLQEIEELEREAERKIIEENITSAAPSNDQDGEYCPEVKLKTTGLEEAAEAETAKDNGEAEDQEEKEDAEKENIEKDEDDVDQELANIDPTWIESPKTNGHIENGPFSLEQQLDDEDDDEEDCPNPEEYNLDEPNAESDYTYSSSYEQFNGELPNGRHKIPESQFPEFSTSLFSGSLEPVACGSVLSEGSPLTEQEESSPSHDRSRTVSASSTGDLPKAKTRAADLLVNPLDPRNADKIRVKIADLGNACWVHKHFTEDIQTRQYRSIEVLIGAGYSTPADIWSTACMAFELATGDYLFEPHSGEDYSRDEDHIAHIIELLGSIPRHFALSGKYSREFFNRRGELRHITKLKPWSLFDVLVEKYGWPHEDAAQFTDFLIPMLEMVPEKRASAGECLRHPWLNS
T3 sequence (P00519 whole entry): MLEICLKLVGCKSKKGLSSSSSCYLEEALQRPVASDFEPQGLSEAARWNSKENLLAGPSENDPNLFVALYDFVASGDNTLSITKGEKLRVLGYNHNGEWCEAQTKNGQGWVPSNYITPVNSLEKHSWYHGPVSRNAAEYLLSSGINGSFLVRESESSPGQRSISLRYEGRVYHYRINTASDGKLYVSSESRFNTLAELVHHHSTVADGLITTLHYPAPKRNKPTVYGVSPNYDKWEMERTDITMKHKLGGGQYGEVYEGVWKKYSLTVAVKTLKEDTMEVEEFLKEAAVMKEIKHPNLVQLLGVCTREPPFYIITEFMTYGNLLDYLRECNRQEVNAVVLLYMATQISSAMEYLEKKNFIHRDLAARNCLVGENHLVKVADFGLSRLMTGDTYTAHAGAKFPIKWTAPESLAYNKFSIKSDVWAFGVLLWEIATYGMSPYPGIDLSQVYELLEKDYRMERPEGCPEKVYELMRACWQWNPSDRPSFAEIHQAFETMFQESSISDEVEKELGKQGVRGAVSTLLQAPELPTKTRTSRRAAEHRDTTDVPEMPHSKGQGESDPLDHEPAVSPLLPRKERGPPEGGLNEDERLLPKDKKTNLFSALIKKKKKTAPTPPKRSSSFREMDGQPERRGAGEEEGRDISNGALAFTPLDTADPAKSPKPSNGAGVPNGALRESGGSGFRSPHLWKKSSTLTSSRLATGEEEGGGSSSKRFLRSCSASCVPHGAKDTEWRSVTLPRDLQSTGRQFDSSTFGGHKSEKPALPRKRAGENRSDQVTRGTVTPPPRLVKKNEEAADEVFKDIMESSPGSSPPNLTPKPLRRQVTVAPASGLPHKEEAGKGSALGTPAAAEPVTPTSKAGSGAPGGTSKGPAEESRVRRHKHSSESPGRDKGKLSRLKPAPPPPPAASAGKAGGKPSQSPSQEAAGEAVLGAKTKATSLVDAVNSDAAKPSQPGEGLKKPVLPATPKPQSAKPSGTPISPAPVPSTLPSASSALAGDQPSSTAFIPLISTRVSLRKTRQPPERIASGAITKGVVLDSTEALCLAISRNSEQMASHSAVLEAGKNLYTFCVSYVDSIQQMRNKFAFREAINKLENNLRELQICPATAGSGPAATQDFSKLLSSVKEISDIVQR

Take `C[C@@H]1Cc2nn(C)c(-c3ccccc3)c2-c2nc(Nc3ccn(CCN4CCOCC4)n3)ncc21` [Compound I-2]: the inhibition at 1 µM was determined as 78% at LCK; 25% on NEK2; 17% against ABL1; 3% on MYLK2 (skMLCK); 79% against SRPK2.

Take `CC(O)CN1CCN(CCn2ccc(Nc3ncc4c(n3)-c3c(nn(C)c3-c3ccccc3)C[C@H]4C)n2)CC1` (some centres unmarked) [Compound I-7]: the inhibition at 1 µM is 84% against LCK; 32% against NEK2; 22% against ABL1; 23% against MYLK2 (skMLCK); 58% against SRPK2.

In the case of `COCCN1CCN(CCn2ccc(Nc3ncc4c(n3)-c3c(nn(C)c3-c3ccccc3)C[C@H]4C)n2)CC1` [Compound I-11], the inhibition at 1 µM was determined as 76% against LCK; 24% on NEK2; 10% against ABL1; 16% at MYLK2 (skMLCK); 38% against SRPK2.

As to `C[C@@H]1Cc2nn(C)c(-c3ccccc3)c2-c2nc(Nc3ccn(CCN4CCN(CC5CCCO5)CC4)n3)ncc21` (some centres unmarked) [Compound I-9], the inhibition at 1 µM against LCK worked out at 80%; against NEK2 it was 32%; against ABL1 it was 17%; against MYLK2 (skMLCK), 10%; on SRPK2 it was 49%.

For the compound `C[C@@H]1Cc2nn(C)c(-c3ccccc3)c2-c2nc(Nc3ccn(CCN4CCN(CC(=O)OC5CCOCC5)CC4)n3)ncc21` [Compound I-8], the inhibition at 1 µM on LCK was 59%; against NEK2, 22%; against ABL1, 10%; against MYLK2 (skMLCK), 13%; at SRPK2, 48%.

As for `C[C@@H]1Cc2nn(C)c(-c3ccccc3)c2-c2nc(Nc3ccn(CCN4CCN(C)CC4)n3)ncc21` [Compound I-1], the inhibition at 1 µM against LCK amounted to 85%; against NEK2 it was 15%; at ABL1 it was 24%; at MYLK2 (skMLCK) it was 16%; at SRPK2 it was 58%.

On to `C[C@@H]1Cc2nn(C)c(-c3ccccc3)c2-c2nc(Nc3ccn(CCN4CCN(CC(C)(C)O)CC4)n3)ncc21` [Compound I-3], for which the inhibition at 1 µM against LCK is 82%; on NEK2, 29%; against ABL1, 27%; at MYLK2 (skMLCK), 12%; at SRPK2 it was 49%.
